# Results taken from US20210032253A1, “PYRAZOLO[1,5-A][1,3,5]TRIAZINE-2-AMINE DERIVATIVE, PREPARATION METHOD THEREFOR AND MEDICAL USE THEREOF” (JIANGSU HENGRUI MEDICINE CO., LTD., priority 2018, published 2021).
# How the values were obtained:
# Format in all cases: cell-based
# [1] = biological target: T1, adenosine A3 receptor (A3R) (Homo sapiens, UniProt P0DMS8); test: Inhibition of adenosine A3 receptor cAMP signaling pathway in CHO-K1/A3R cells (HTRF cAMP dynamic 2 kit); details: Table 3; for IC50: CHO-K1/A3R cells, cAMP, 10 μM forskolin, 5 nM 2Cl-IB-MECA; for IC50 ratio (A3R/A2aR): selectivity A3R over A2aR
# T1 construct: expressed in transfected cells; host or cells: CHO-K1
# T1 sequence (P0DMS8 1-318): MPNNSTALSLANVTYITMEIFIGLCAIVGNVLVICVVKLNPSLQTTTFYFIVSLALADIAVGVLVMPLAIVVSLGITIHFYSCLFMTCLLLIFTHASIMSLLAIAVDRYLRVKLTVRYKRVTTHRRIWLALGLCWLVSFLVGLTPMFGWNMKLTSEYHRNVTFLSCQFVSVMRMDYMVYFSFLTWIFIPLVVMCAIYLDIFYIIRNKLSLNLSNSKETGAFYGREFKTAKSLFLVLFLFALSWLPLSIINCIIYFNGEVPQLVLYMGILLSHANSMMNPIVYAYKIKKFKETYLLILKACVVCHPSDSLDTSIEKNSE
# Description: (§1) Test Example 1. Determination of the inhibitory activities of the compounds of the present disclosure on the adenosine A2a receptor (A2aR) cAMP signaling pathway, the adenosine A1 receptor (A1R) cAMP signaling pathway and the adenosine A3 receptor (A3R) cAMP signaling pathway.
# (§2) The inhibitory activities of the compounds of the present disclosure on the adenosine A2a receptor (A2aR) cAMP signaling pathway, the adenosine A1 receptor cAMP signaling pathway and the adenosine A3 receptor cAMP signaling pathway were determined by the following methods. The experimental method is briefly described as follows:
# CHO-K1/A3R cells were cultured in DMEMIF12 medium containing 10% fetal bovine serum and 10 μg/mL puromycin. The cells were digested with the cell dissociation buffer during the experiment. The cells were resuspended in the HBSS buffer containing 20 mM HEPES and 0.1% bovine serum albumin and counted, and the cell density was adjusted to 5×10^5 cells/mL. In 384-well plates, each well was added with 12.5 μL of the cell suspension, and 6.25 μL of the test compounds (4× concentration) formulated with the HBSS buffer containing 20 mM HEPES, 0.1% bovine serum albumin, 54 μM rolipram and 2.7 U/mL adenosine deaminase, and the plates were incubated at room temperature for 30 minutes. Each well was then added with 6.25 μL of forskolin and 2Cl-IB-MECA (4× concentration) formulated with the HBSS buffer containing 20 mM HEPES, 0.1% bovine serum albumin, […] rolipram and 2.7 U/mL adenosine deaminase, and the plates were incubated at room temperature for 30 minutes. The final concentrations of the compounds were: 100000, 10000, 1000, 100, 10, 1, 0.1 and 0 nM. The final concentration of forskolin was 10 μM. The final concentration of 2Cl-IB-MECA was 5 nM. Intracellular cAMP concentration was determined with cAMP dynamic 2 kits. cAMP-d2 and Anti-cAMP—Eu-Cryptate were diluted respectively with the cAMP lysis buffer at a ratio of 1:4. Each well was added with 12.5 μL of the diluted cAMP-d2, followed by addition of 12.5 μL of the diluted Anti-cAMP—Eu-Cryptate, and the plates were incubated at room temperature in the dark for 1 hour. The HTRF signal values were read by the PHERAstar multi-function microplate reader. IC50 values for the inhibitory activities of the compounds were calculated by Graphpad Prism software, and are shown in Table 3.
# [2] = biological target: T2, adenosine A2a receptor (A2aR) (Homo sapiens, UniProt P29274); test: Inhibition of adenosine A2a receptor cAMP signaling pathway in CHO-K1/A2aR cells (HTRF cAMP dynamic 2 kit); details: Table 1, 20 nM ethylcarbazole
# T2 construct: expressed in transfected cells; host or cells: CHO-K1
# Description: as §1, §2
# CHO-K1/A2aR cells were cultured in DMEM/F12 medium containing 10% fetal bovine serum and 800 μg/mL Zeocin™. The cells were digested with the cell dissociation buffer during the experiment. The cells were resuspended in the HBSS buffer containing 20 mM HEPES and 0.1% bovine serum albumin and counted, and the cell density was adjusted to 10^6 cells/mL. In 384-well plates, each well was added with 5 μL of the cell suspension, and 2.5 µL of test compounds (4× concentration) formulated with the HBSS buffer containing 20 mM HEPES, 0.1% bovine serum albumin, 54 μM rolipram and 2.7 U/mL adenosine deaminase, and the plates were incubated at room temperature for 30 minutes. Each well was then added with 2.5 μL of ethylcarbazole (4× concentration) formulated with the balanced salt buffer containing 20 mM HEPES, 0.1% bovine serum albumin, 54 μM rolipram and 2.7 U/mL adenosine deaminase, and the plates were incubated at room temperature for 30 minutes. The final concentrations of the compounds were: 10000, 2000, 400, 80, 16, 3.2, 0.64, 0.128, 0.0256, 0.00512, and 0.001024 nM. The final concentration of ethylcarbazole was 20 nM. Intracellular cAMP concentration was determined with cAMP dynamic 2 kits. cAMP-d2 and Anti-cAMP—Eu-Cryptate were diluted respectively with the cAMP lysis buffer at a ratio of 1:4. Each well was added with 5 μL of the diluted cAMP-d2, followed by addition of 5 μL of the diluted Anti-cAMP—Eu-Cryptate, and the plates were incubated at room temperature in the dark for 1 hour. The HTRF signal values were read by the PHERAstar multi-function microplate reader.
# [3] = biological target: T3, adenosine A1 receptor (A1R) (Homo sapiens, UniProt P30542); test: Inhibition of adenosine A1 receptor cAMP signaling pathway in CHO-K1/A1R cells (HTRF cAMP dynamic 2 kit); details: Table 2; for IC50: CHO-K1/A1R cells, cAMP, 10 μM forskolin, 10 nM CPA; for IC50 ratio (A1R/A2aR): selectivity A1R over A2aR
# T3 construct: expressed in transfected cells; host or cells: CHO-K1
# T3 sequence (P30542 1-326): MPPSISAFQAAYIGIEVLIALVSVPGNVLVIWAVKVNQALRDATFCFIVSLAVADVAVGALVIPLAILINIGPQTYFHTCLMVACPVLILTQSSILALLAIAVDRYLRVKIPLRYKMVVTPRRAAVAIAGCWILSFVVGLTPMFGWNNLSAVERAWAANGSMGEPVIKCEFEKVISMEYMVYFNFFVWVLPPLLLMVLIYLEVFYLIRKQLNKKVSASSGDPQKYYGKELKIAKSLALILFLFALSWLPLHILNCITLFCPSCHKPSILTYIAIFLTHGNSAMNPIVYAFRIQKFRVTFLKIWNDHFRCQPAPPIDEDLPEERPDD
# Description: as §1, §2
# CHO-K1/A1R cells were cultured in DMEMIF12 medium containing 10% fetal bovine serum and 1 mg/mL G418. The cells were digested with the cell dissociation buffer during the experiment. The cells were then resuspended in the HBSS buffer containing 20 mM HEPES and 0.1% bovine serum albumin and counted, and the cell density was adjusted to 5×10^5 cells/mL. In 384-well plates, each well was added with 12.5 μL of the cell suspension, and 6.25 μL of the test compounds (4× concentration) formulated with the HBSS buffer containing 20 mM HEPES, 0.1% bovine serum albumin, 54 μM rolipram and 2.7 U/mL adenosine deaminase, and the plates were incubated at room temperature for 30 minutes. Each well was then added with 6.25 μL of forskolin and N6-cyclopentyladenosine (4× concentration) formulated with the HBSS buffer containing 20 mM HEPES, 0.1% bovine serum albumin, 54 μM rolipram and 2.7 U/mL adenosine deaminase, and the plates were incubated at room temperature for 30 minutes. The final concentrations of the compounds were: 100000, 10000, 1000, 100, 10, 1, 0.1 and 0 nM. The final concentration of forskolin was 10 μM. The final concentration of CPA was 10 nM. Intracellular cAMP concentration was determined with cAMP dynamic 2 kits. cAMP-d2 and Anti-cAMP—Eu-Cryptate were diluted respectively with the cAMP lysis buffer at a ratio of 1:4. Each well was added with 12.5 μL of the diluted cAMP-d2, followed by addition of 12.5 μL of the diluted Anti-cAMP—Eu-Cryptate, and the plates were incubated at room temperature in the dark for 1 hour. The HTRF signal values were read by the PHERAstar multi-function microplate reader.
# T2 sequence (P29274 whole entry): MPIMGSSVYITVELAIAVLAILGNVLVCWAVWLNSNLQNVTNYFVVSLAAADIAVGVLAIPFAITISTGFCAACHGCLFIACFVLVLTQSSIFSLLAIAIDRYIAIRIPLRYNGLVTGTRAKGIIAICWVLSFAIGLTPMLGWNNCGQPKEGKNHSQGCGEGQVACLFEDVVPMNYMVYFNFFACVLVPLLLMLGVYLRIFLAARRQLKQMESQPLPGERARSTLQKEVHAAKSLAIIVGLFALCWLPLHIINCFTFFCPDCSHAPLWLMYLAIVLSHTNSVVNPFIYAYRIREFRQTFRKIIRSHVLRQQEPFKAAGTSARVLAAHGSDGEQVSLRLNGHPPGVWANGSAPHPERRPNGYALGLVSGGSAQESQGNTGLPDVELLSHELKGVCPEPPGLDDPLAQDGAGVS
SMILES,IC50 [1],IC50 ratio (A3R/A2aR) [1],IC50 [2],IC50 [3],IC50 ratio (A1R/A2aR) [3]
"COCCOCc1cccc(Cc2cnn3c(-c4ccc(C)o4)nc(N)nc23)n1 [Example 3, 8-((6-((2-Methoxyethoxy)methyl)pyridin-2-yl)methyl)-4-(5-methylfuran-2-yl)pyrazolo[1,5-a][1,3,5]triazin-2-amine]",4120 nM,>10^3,0.45 nM,434 nM,964^
"Cc1ccc(-c2nc(N)nc3c(Cc4ccccc4F)cnn23)o1 [Example 4, 8-(2-Fluorobenzyl)-4-(5-methylfuran-2-yl)pyrazolo[1,5-a][1,3,5]triazin-2-amine]",> 10000 nM,>10^4,0.14 nM,–,–
"Cc1ccc(-c2nc(N)nc3c(Cc4cccc(COS(N)(=O)=O)n4)cnn23)o1 [Example 11, (6-((2-Amino-4-(5-methylfuran-2-yl)pyrazolo[1,5-a][1,3,5]triazin-8-yl)methyl)pyridin-2-yl)methyl sulfamate]",–,–,1.86 nM,410 nM,220^
"Cc1ccc(-c2nc(N)nc3c(Oc4ccccn4)cnn23)o1 [Example 23, 4-(5-Methylfuran-2-yl)-8-(pyridin-2-yloxy)pyrazolo[1,5-a][1,3,5]triazin-2-amine]",–,–,0.58 nM,–,–
"Cc1ccc(-c2nc(N)nc3c(Nc4ccccc4F)cnn23)o1 [Example 31, N^8-(2-Fluorophenyl)-4-(5-methylfuran-2-yl)pyrazolo[1,5-a][1,3,5]triazine-2,8-diamine]",–,–,3.53 nM,–,–
"Nc1nc(-c2ccco2)n2ncc(Cc3ccccc3)c2n1 [Example 33, 8-Benzyl-4-(furan-2-yl)pyrazolo[1,5-a][1,3,5]triazin-2-amine]",–,–,4.14 nM,565 nM,136^
"Nc1nc(-c2ccco2)n2ncc(Cc3cccc(F)c3)c2n1 [Example 34, 8-(3-Fluorobenzyl)-4-(furan-2-yl)pyrazolo[1,5-a][1,3,5]triazin-2-amine]",–,–,4.64 nM,–,–

# The next lines start with the values.
IC50 [1],IC50 ratio (A3R/A2aR) [1],IC50 [2],IC50 [3],IC50 ratio (A1R/A2aR) [3],SMILES
2420 nM,>10^3,0.87 nM,1100 nM,>10^3,"Cc1ccc(-c2nc(N)nc3c(Cc4cccc(CO)n4)cnn23)o1 [Example 2, (6-((2-Amino-4-(5-methylfuran-2-yl)pyrazolo[1,5-a][1,3,5]triazin-8-yl)methyl)pyridin-2-yl)methanol]"
2280 nM,>10^3,0.55 nM,835 nM,>10^3,"Cc1ccc(-c2nc(N)nc3c(Cc4cccc(CN5CCOCC5)n4)cnn23)o1 [Example 5, 4-(5-Methylfuran-2-yl)-8-((6-(morpholinomethyl)pyridin-2-yl)methyl)pyrazolo[1,5-a][1,3,5]triazin-2-amine]"
4810 nM,>10^3,0.4 nM,316 nM,790^,"Cc1ccc(-c2nc(N)nc3c(Cc4cccc(CO[C@@H]5CCOC5)n4)cnn23)o1 [Example 6, (R)-4-(5-Methylfuran-2-yl)-8-((6-(((tetrahydrofuran-3-yl)oxy)methyl)pyridin-2-yl)methyl)pyrazolo[1,5-a][1,3,5]triazin-2-amine]"
7370 nM,>10^3,1.18 nM,340 nM,288^,"Cc1ccc(-c2nc(N)nc3c(Cc4cccc(CN5CC6(COC6)C5)n4)cnn23)o1 [Example 7, 8-((6-((2-Oxa-6-azaspiro[3.3]heptan-6-yl)methyl)pyridin-2-yl)methyl)-4-(5-methylfuran-2-yl) pyrazolo[1,5-a][1,3,5]triazin-2-amine]"
6490 nM,>10^3,1.32 nM,943 nM,714^,"Cc1ccc(-c2nc(N)nc3c(Cc4cccc(CN5CCN(C)CC5)n4)cnn23)o1 [Example 8, 4-(5-Methylfuran-2-yl)-8-((6-((4-methylpiperazin-1-yl)methyl)pyridin-2-yl)methyl)pyrazolo[1,5-a][1,3,5]triazin-2-amine]"
1390 nM,>10^3,0.72 nM,–,–,"Cc1ccc(-c2nc(N)nc3c(Cc4cccc(COCC5CC5)n4)cnn23)o1 [Example 17, 8-((6-((Cyclopropylmethoxy)methyl)pyridin-2-yl)methyl)-4-(5-methylfuran-2-yl)pyrazolo[1,5-a][1,3,5]triazin-2-amine]"
280 nM,>10^3,0.09 nM,–,–,"CCCc1cccc(Cc2cnn3c(-c4ccc(C)o4)nc(N)nc23)n1 [Example 20, 4-(5-Methylfuran-2-yl)-8-((6-propylpyridin-2-yl)methyl)pyrazolo[1,5-a][1,3,5]triazin-2-amine]"
